Consider one molecule from patent US20160138077A1, “MONITORING AND ASSESSING DEACETYLASE ENZYME ACTIVITY” (THE GENERAL HOSPITAL CORPORATION, priority 2013, published 2016).

The structures appear in SMILES notation.

Format in all cases: biochemical
In one experiment the target is T1, HDAC3 (Homo sapiens, UniProt O15379).
T1 construct: purchased Cayman Chemicals
The experiment in a line: LCMS characterization of enzymatic deacetylation by HDAC3, incl. cleavage over time (kobs, T1/2). The settings on record: for % HP-1 to DHP-1: 5 μM probe, 12 hours at 37° C. How it is done:
(§1) The enzymatic cleavage of HP-1 and HP-2 was analyzed by performing LCMS assays with HeLa nuclear extract (AnaSpec), HeLa whole cell lysate (Santa Cruz Inc.), and the following purified HDAC isoforms: 1, 2, 3, 6 and 8 (HDAC1, 3 and 8 from Cayman Chemicals and HDAC2 and 6 provided by Dr. Stephen Haggarty). Solutions containing (i) vehicle with DMSO in HDAC buffer, (ii) 5 μM probe in HDAC buffer, (iii) 5 μM probe and HDAC enzyme/HeLa nuclear extract/HeLa whole cell lysate in HDAC buffer, or (iv) 5 μM probe and HDAC enzyme/HeLa nuclear extract/HeLa whole cell lysate pre-incubated with 10 μM SAHA (Provided by Dr. Stephen Haggarty) in HDAC buffer were incubated for 12 hours at 37° C. Following incubation, a 20 μL aliquot of supernatant from each sample was analyzed by LCMS. Deacetylation of HP-1 and 2 was confirmed by detection of the (M+H)^+.ion following positive electrospray ionization. For HP-1, the (M+H)^+ ion for the corresponding aldehyde (8, DHP-1) was detected, which formed following reaction of the initial imine deacetylation product with water. For HP-2, the (M+H)^−. ion for the corresponding amine (6, DHP-2) was identified. The peak area for each detected compound was measured to determine the % deacetylation of each probe. All assay samples were analyzed in triplicate. […]
The rate of cleavage of HP-1 by purified HDAC3 was analyzed by performing a LCMS assay. […] Following incubation, a 20 μL aliquot of supernatant from each sample was analyzed by LCMS at t=0, 1, 2, 4, 8, and 12 hours. […] For HP-1, the (M+H)^+ ion for the corresponding aldehyde (8, DHP-1) was detected, which formed following reaction of the initial imine deacetylation product with water. The peak area for each detected compound was measured to determine the % deacetylation of each probe. The observed rate constant was determined using Graphpad by plotting Ln(DHP-1 peak area) versus time. […] All assay samples were analyzed in triplicate. […]
LCMS characterization of HDAC enzymatic action on HP-1 and HP-2. […] Following incubation, an aliquot of supernatant from each sample was analyzed by LCMS. […]

The next experiment has as its target T2, Pepsin (Sus scrofa, UniProt P00791).
T2 construct: purchased Sigma-Aldrich
Briefly: LCMS assay of protease enzymatic action on HP-1 (HDAC buffer at pH 4). The settings on record: −SAHA, 5 μM HP-1, 12 hours at 37° C. How it is done:
(§2) The enzymatic cleavage of HP-1 was analyzed by performing LCMS assays with sirtuin 1 and 3 (Cayman Chemicals) and the proteases chymotrypsin (Sigma-Aldrich), cathepsin (EMD Millipore), and pepsin* (Sigma-Aldrich). Solutions containing (i) vehicle with DMSO in HDAC buffer, (ii) 5 μM HP-1 in HDAC buffer, and (iii) 5 μM HP-1 and the enzyme in HDAC buffer were incubated for 12 hours at 37° C. Following incubation, a 20 μL aliquot of supernatant from each sample was analyzed by LCMS. Deacetylation of HP-1 was investigated by screening for the DHP-1 (M+H)^+ ion following positive electrospray ionization. All assay samples were analyzed in triplicate. […]
(§3) HP-1 was not altered by sirtuins 1 and 3 or the proteases chymotrypsin, cathepsin and pepsin, as determined by LCMS. […] For Cathepsin B, the cleavage of the enzyme substrate, z-RR-pNA (Santa Cruz Biotechnology, Dallas, Tex.) was monitored using a Wallac EnVision 2103 Multilabel fluorescence plate reader (PerkinElmer, Waltham, Mass.) with a 405 nm excitation filter, a 406 nm emission filter, and a gain of 150. The cleavage of the pepsin substrate, Ac-Phe-Tyr-OH (Chem-Impex Inc.), was monitored by LCMS at pH 4. […]

For another experiment, the target named is T3, Chymotrypsin (Bos taurus, UniProt P00766).
T3 construct: purchased Sigma-Aldrich
The experiment in a line: LCMS assay of protease enzymatic action on HP-1. The settings on record: −SAHA, 5 μM HP-1, 12 hours at 37° C. How it is done: as §2, §3

The next experiment addresses T4, Cathepsin B (Homo sapiens, UniProt P07858).
T4 construct: purchased EMD Millipore
The experiment in a line: LCMS assay of protease enzymatic action on HP-1. The settings on record: −SAHA, 5 μM HP-1, 12 hours at 37° C. How it is done:
as §2, §3

The target of a further experiment is HDAC2 (Homo sapiens, UniProt Q92769). The experiment in a line: LCMS characterization of enzymatic deacetylation by HDAC2. The settings on record: 5 μM probe, 12 hours at 37° C. How it is done:
as §1, with “Deacetylation of HP-1 and 2 was confirmed by detection of the (M+H)^+.ion following positive electrospray ionization.” left out, “For HP-2, the (M+H)^−. ion for the corresponding amine (6, DHP-2) was identified.” left out
LCMS characterization of HDAC enzymatic action on HP-1 and HP-2. […] Following incubation, an aliquot of supernatant from each sample was analyzed by LCMS. […] The peak area for each detected compound was measured to determine the % deacetylation of each probe (full experimental details in Example 1).

T1 sequence (O15379 whole entry): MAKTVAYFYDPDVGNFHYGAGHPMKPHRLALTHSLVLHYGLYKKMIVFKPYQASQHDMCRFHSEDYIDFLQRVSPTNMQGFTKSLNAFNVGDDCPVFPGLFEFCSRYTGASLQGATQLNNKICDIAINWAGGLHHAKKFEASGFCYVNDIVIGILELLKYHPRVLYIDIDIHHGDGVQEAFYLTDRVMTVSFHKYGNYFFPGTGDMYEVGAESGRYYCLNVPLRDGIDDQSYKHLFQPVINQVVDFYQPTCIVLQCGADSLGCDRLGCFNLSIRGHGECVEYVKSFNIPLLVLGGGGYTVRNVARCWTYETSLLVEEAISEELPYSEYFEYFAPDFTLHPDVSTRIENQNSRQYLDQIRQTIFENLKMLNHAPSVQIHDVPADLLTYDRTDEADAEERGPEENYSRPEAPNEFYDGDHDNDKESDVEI
T1 sequence (Q9Y618 395-489 partner limits assumed): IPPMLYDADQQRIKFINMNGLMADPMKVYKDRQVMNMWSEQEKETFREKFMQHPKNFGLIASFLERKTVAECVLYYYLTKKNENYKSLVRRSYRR
HDAC2, sequence (Q92769 whole entry, species assumed): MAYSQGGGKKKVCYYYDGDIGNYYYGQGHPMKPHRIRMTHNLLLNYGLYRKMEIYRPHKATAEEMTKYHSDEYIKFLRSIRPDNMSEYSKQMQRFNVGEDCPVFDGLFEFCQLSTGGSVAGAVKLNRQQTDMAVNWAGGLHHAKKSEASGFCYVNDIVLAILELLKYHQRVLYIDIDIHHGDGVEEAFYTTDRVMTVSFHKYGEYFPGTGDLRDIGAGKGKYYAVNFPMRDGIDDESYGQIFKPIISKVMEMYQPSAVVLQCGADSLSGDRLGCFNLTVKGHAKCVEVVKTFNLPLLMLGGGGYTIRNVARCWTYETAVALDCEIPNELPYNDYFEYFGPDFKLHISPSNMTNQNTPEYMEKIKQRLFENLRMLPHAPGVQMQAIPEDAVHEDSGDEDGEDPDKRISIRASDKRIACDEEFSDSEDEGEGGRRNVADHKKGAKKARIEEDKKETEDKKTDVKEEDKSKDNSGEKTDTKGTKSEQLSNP
T2 sequence (P00791 60-385): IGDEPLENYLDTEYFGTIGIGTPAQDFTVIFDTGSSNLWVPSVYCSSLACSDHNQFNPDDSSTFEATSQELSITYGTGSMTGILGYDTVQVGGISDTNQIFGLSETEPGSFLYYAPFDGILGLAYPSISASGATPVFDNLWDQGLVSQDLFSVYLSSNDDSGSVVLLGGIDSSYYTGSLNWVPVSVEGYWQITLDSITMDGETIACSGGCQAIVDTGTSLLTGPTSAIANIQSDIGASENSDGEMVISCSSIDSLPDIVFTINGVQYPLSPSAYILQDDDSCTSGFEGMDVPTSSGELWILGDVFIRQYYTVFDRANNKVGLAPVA

As for `CC(=O)NC=CCCCCNC(=O)CCCCCNc1ccc([N+](=O)[O-])c2nonc12` [HP-1], the “kobs with HDAC3 (conversion of HP-1 to DHP-1)” value on HDAC3 (5 μM HP-1, HDAC3, 37° C., t=0-12 hours, Ln(DHP-1 peak area) versus time) turned out to be 3.2e-05 ± 6e-06 s⁻¹. Moreover, the “% HP-1 to DHP-1” value at HDAC3 (HDAC3, +SAHA (10 μM)) was found to be 0%; on HDAC3 (HDAC3, −SAHA, maximum detected conversion), 93%; at Pepsin, 0%; at Chymotrypsin it was 0%; on Cathepsin B, 0%; at HDAC2 (HDAC2, +SAHA (10 μM)), 0%. Also, the “% HP-1 to DHP-1” value at HDAC2 (HDAC2, −SAHA) worked out at 0%.
